Laboratory results from PubChem BioAssay (NCI).
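Assay format: 96-well plates, 48-hour exposure. TGI marks complete inhibition of growth.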 Peptide text beside a SMILES is read from it. * marks the point of attachment. Boc = CC(C)(C)OC(=O)*; OBn = c1ccc(CO*)cc1

Assays:
Assay in all cases: NCI-60 cell line screen, 48 h
[1] = system: 786-0 renal
[2] = system: A498 renal
[3] = system: A549 NSCLC
[4] = system: ACHN renal
[5] = system: BT-549 breast
[6] = system: CAKI-1 renal
[7] = system: CCRF-CEM leukemia
[8] = system: COLO 205 colon
[9] = system: DU-145 prostate
[10] = system: EKVX NSCLC
[11] = system: HCT-116 colon
[12] = system: HCT-15 colon
[13] = system: HL-60(TB) leukemia
[14] = system: HOP-92 NSCLC
[15] = system: HS 578T breast
[16] = system: HT29 colon
[17] = system: IGROV1 ovarian
[18] = system: K-562 leukemia
[19] = system: KM12 colon
[20] = system: LOX IMVI melanoma
[21] = system: M14 melanoma
[22] = system: MALME-3M melanoma
[23] = system: MCF7 breast
[24] = system: MDA-MB-231 breast
[25] = system: MDA-MB-435
[26] = system: MDA-N
[27] = system: MOLT-4 leukemia
[28] = system: NCI-H226 lung
[29] = system: NCI-H23 lung
[30] = system: NCI-H522 lung
[31] = system: NCI/ADR-RES ovarian
[32] = system: OVCAR-4 ovarian
[33] = system: OVCAR-5 ovarian
[34] = system: OVCAR-8 ovarian
[35] = system: PC-3 prostate
[36] = system: RXF 393 renal
[37] = system: SF-268 CNS
[38] = system: SF-295 CNS
[39] = system: SF-539 CNS
[40] = system: SK-MEL-2 melanoma
[41] = system: SK-MEL-28 melanoma
[42] = system: SK-MEL-5 melanoma
[43] = system: SK-OV-3 ovarian
[44] = system: SN12C renal
[45] = system: SNB-19 CNS
[46] = system: SNB-75 CNS
[47] = system: SR leukemia
[48] = system: SW-620 colon
[49] = system: T-47D breast
[50] = system: TK-10 renal
[51] = system: U251 CNS
[52] = system: UACC-257 melanoma
[53] = system: UACC-62 melanoma
[54] = system: UO-31 renal
[55] = system: HCC-2998 colon
[56] = system: HOP-62 NSCLC
[57] = system: NCI-H460 lung
[58] = system: OVCAR-3 ovarian
[59] = system: RPMI-8226 leukemia

CC(NC(=O)CNC(=O)OC(C)(C)C)C(=O)NC(Cc1ccccc1)C(=O)OCc1ccccc1 (stereo not drawn) (Boc-Gly-Ala-Phe-OBn; configuration not given here)
TGI [1]: > 100 µM
TGI [2]: > 100 µM
TGI [3]: > 100 µM
TGI [4]: > 100 µM
TGI [5]: > 100 µM
TGI [6]: > 100 µM
TGI [7]: > 100 µM
TGI [8]: > 100 µM
TGI [9]: > 100 µM
TGI [10]: > 100 µM
TGI [11]: > 100 µM
TGI [12]: > 100 µM
TGI [13]: > 100 µM
TGI [14]: > 100 µM
TGI [15]: > 100 µM
TGI [16]: > 100 µM
TGI [17]: > 100 µM
TGI [18]: > 100 µM
TGI [19]: > 100 µM
TGI [20]: > 100 µM
TGI [21]: > 100 µM
TGI [22]: > 100 µM
TGI [23]: > 100 µM
TGI [24]: > 100 µM
TGI [25]: > 100 µM
TGI [26]: > 100 µM
TGI [27]: > 100 µM
TGI [28]: > 100 µM
TGI [29]: > 100 µM
TGI [30]: > 100 µM
TGI [31]: > 100 µM
TGI [32]: > 100 µM
TGI [33]: > 100 µM
TGI [34]: > 100 µM
TGI [35]: > 100 µM
TGI [36]: > 100 µM
TGI [37]: > 100 µM
TGI [38]: > 100 µM
TGI [39]: > 100 µM
TGI [40]: > 100 µM
TGI [41]: > 100 µM
TGI [42]: > 100 µM
TGI [43]: > 100 µM
TGI [44]: > 100 µM
TGI [45]: > 100 µM
TGI [46]: > 100 µM
TGI [47]: > 100 µM
TGI [48]: > 100 µM
TGI [49]: > 100 µM
TGI [50]: > 100 µM
TGI [51]: > 100 µM
TGI [52]: > 100 µM
TGI [53]: > 100 µM
TGI [54]: > 100 µM

N#Cc1c(Cl)c2ccccc2n2c1nc1ccccc12
TGI [1]: 51 µM
TGI [2]: > 100 µM
TGI [3]: > 100 µM
TGI [4]: 32.6 µM
TGI [5]: > 100 µM
TGI [6]: 51.4 µM
TGI [7]: 47.2 µM
TGI [8]: 41.9 µM
TGI [9]: 80.4 µM
TGI [10]: 70 µM
TGI [55]: 40.1 µM
TGI [11]: 33.5 µM
TGI [12]: 33.1 µM
TGI [13]: 31 µM
TGI [56]: > 100 µM
TGI [14]: 48.2 µM
TGI [15]: 63.1 µM
TGI [16]: 35.7 µM
TGI [17]: 38.7 µM
TGI [18]: > 100 µM
TGI [19]: > 100 µM
TGI [20]: 34.6 µM
TGI [21]: 69.8 µM
TGI [23]: > 100 µM
TGI [24]: 74 µM
TGI [25]: > 100 µM
TGI [26]: > 100 µM
TGI [27]: 75.9 µM
TGI [28]: 59 µM
TGI [29]: 53.8 µM
TGI [57]: > 100 µM
TGI [31]: 65.6 µM
TGI [58]: > 100 µM
TGI [32]: 84 µM
TGI [33]: > 100 µM
TGI [34]: 48.3 µM
TGI [35]: > 100 µM
TGI [59]: 72.7 µM
TGI [36]: 49.3 µM
TGI [37]: 83.7 µM
TGI [38]: > 100 µM
TGI [39]: 42.8 µM
TGI [40]: > 100 µM
TGI [41]: > 100 µM
TGI [43]: > 100 µM
TGI [44]: 67 µM
TGI [45]: > 100 µM
TGI [46]: > 100 µM
TGI [47]: 77.7 µM
TGI [48]: > 100 µM
TGI [49]: 46.8 µM
TGI [50]: 36.5 µM
TGI [51]: > 100 µM
TGI [52]: > 100 µM
TGI [53]: > 100 µM
TGI [54]: 38.2 µM

CCCCCCCCC/C=C1\CC(CO)(COC(=O)C2CCCCC2)OC1=O (configuration not stated)
TGI [1]: 32.1 µM
TGI [2]: 50.6 µM
TGI [3]: 48.3 µM
TGI [4]: 69.1 µM
TGI [5]: 36.2 µM
TGI [6]: 49.3 µM
TGI [7]: 63.2 µM
TGI [8]: 30.9 µM
TGI [9]: 21.5 µM
TGI [10]: 39.1 µM
TGI [55]: 42.3 µM
TGI [11]: 44.5 µM
TGI [12]: 41.7 µM
TGI [56]: 27.9 µM
TGI [14]: 22.2 µM
TGI [15]: 41 µM
TGI [16]: 42 µM
TGI [17]: 37.7 µM
TGI [18]: > 100 µM
TGI [19]: 38.9 µM
TGI [20]: 24 µM
TGI [21]: 55.9 µM
TGI [22]: 31.9 µM
TGI [23]: 43.9 µM
TGI [24]: 44.8 µM
TGI [25]: 34.4 µM
TGI [26]: 38.8 µM
TGI [27]: 57.6 µM
TGI [28]: 74.4 µM
TGI [29]: 47 µM
TGI [57]: 57.1 µM
TGI [30]: 34.6 µM
TGI [31]: 38.1 µM
TGI [58]: 33.4 µM
TGI [32]: 49.3 µM
TGI [33]: 38 µM
TGI [34]: 29.2 µM
TGI [35]: 40.4 µM
TGI [36]: 38.7 µM
TGI [37]: 46.7 µM
TGI [38]: 34.1 µM
TGI [40]: 43.1 µM
TGI [41]: 30.5 µM
TGI [42]: 27.3 µM
TGI [43]: 70.8 µM
TGI [44]: 35.2 µM
TGI [45]: 40.9 µM
TGI [46]: 32.9 µM
TGI [47]: > 100 µM
TGI [48]: 33.1 µM
TGI [49]: 51.7 µM
TGI [50]: 49.8 µM
TGI [51]: 42.6 µM
TGI [52]: 87.4 µM
TGI [53]: 46.9 µM
TGI [54]: 55.8 µM

C=C(C)CN(CC#N)CC(=C)C
TGI [1]: > 100 µM
TGI [2]: > 100 µM
TGI [3]: > 100 µM
TGI [4]: > 100 µM
TGI [5]: > 100 µM
TGI [6]: > 100 µM
TGI [7]: > 100 µM
TGI [8]: > 100 µM
TGI [9]: > 100 µM
TGI [10]: > 100 µM
TGI [55]: > 100 µM
TGI [11]: > 100 µM
TGI [12]: > 100 µM
TGI [13]: > 100 µM
TGI [56]: > 100 µM
TGI [15]: > 100 µM
TGI [16]: > 100 µM
TGI [17]: > 100 µM
TGI [18]: > 100 µM
TGI [19]: > 100 µM
TGI [20]: > 100 µM
TGI [21]: > 100 µM
TGI [22]: > 100 µM
TGI [23]: > 100 µM
TGI [24]: > 100 µM
TGI [25]: > 100 µM
TGI [26]: > 100 µM
TGI [27]: > 100 µM
TGI [28]: > 100 µM
TGI [29]: > 100 µM
TGI [30]: > 100 µM
TGI [31]: > 100 µM
TGI [58]: > 100 µM
TGI [32]: > 100 µM
TGI [33]: > 100 µM
TGI [34]: > 100 µM
TGI [35]: > 100 µM
TGI [59]: > 100 µM
TGI [36]: > 100 µM
TGI [37]: > 100 µM
TGI [38]: > 100 µM
TGI [40]: > 100 µM
TGI [41]: > 100 µM
TGI [42]: > 100 µM
TGI [43]: > 100 µM
TGI [44]: > 100 µM
TGI [45]: > 100 µM
TGI [46]: > 100 µM
TGI [47]: > 100 µM
TGI [48]: > 100 µM
TGI [49]: > 100 µM
TGI [50]: > 100 µM
TGI [51]: > 100 µM
TGI [52]: > 100 µM
TGI [53]: > 100 µM
TGI [54]: > 100 µM
